Results on 24 compounds are retold here after patent US20250188069A1, “COMPOUNDS AND METHODS FOR DEGRADING CASEIN KINASE 1 ALPHA” (PIN THERAPEUTICS, INC., priority 2022, published 2025).

Structures can show the parent of a compound that is named as a salt.

One assay deals with MV-4-11 cells. The assay is described as follows: AML cell viability assay (RealTime-Glo). The following applies: Homo sapiens, MV4-11; IC50 class; MV-4-11 cells, RealTime-Glo after 44 hrs of treatment (TABLE 3); read-out: Cell viability classification. It is filed as cell-based.
The next assay deals with CK1α (Homo sapiens, UniProt P48729+Q96SW2). The assay is described as follows: CK1α degradation, flow cytometry in MV4-11 cells. The class given is cell-based. Also noted: CK1α levels were determined in MV-4-11 cells using Jess (Protein Simple); host or cells: MV-4-11. The following applies: % reduction of CK1α compared to DMSO, MV4-11 cells at 316 nM for 16 hours, read-out: CK1α degradation classification. The protocol: MV-4-11 cells were obtained from ATCC and grown in IMDM supplemented with 10% FBS. The cells were maintained at 37° C. under 5% CO2.
Compounds of the present disclosure were added to cells (final DMSO concentration of 0.5%) and incubated for 16 hours. CK1α level was determined in MV4-11 cells using flow cytometry (Luminex, Guava EasyCyte Plus). Briefly, cells were prepared with sequential 10% formalin and 70% methanol fixation. […] GuavaSoft Incyte software was used to analyse the flow cytometry data. Protein levels relative to DMSO are calculated for CK1α.
The efficacy of CK1α degradation of other part of compounds of the present disclosure was determined by treating MV4-11 cells at […] (Final DMSO concentration of 0.5%) for 16 hours. Protein levels relative to DMSO are calculated for CK1α.
Protein levels relative to DMSO are calculated for CK1α.
Background: A flow cytometer gives signals particle by particle.

CK1α, sequence (P48729 whole entry): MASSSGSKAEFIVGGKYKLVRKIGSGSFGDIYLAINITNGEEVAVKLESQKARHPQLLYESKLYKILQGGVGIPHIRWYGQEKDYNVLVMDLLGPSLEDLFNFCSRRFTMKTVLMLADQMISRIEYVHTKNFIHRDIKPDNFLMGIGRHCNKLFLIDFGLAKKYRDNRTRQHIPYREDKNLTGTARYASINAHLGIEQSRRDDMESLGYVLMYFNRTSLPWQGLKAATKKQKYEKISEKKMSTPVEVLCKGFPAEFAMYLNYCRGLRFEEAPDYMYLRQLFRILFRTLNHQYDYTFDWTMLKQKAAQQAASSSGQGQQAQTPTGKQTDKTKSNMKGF
CK1α, sequence (Q96SW2 whole entry): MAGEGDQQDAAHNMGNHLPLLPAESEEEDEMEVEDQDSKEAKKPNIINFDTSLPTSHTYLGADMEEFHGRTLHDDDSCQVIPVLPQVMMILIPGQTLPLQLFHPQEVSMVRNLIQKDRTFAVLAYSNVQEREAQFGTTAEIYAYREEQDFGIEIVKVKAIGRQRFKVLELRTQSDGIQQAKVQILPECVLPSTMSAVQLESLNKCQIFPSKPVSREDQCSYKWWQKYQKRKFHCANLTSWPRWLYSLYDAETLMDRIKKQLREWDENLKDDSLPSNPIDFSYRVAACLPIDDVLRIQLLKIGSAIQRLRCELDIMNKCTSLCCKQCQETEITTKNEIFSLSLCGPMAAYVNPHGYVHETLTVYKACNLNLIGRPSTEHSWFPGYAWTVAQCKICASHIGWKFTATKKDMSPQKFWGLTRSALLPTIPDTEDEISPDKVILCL
CK1α, sequence (Q16531 whole entry partner): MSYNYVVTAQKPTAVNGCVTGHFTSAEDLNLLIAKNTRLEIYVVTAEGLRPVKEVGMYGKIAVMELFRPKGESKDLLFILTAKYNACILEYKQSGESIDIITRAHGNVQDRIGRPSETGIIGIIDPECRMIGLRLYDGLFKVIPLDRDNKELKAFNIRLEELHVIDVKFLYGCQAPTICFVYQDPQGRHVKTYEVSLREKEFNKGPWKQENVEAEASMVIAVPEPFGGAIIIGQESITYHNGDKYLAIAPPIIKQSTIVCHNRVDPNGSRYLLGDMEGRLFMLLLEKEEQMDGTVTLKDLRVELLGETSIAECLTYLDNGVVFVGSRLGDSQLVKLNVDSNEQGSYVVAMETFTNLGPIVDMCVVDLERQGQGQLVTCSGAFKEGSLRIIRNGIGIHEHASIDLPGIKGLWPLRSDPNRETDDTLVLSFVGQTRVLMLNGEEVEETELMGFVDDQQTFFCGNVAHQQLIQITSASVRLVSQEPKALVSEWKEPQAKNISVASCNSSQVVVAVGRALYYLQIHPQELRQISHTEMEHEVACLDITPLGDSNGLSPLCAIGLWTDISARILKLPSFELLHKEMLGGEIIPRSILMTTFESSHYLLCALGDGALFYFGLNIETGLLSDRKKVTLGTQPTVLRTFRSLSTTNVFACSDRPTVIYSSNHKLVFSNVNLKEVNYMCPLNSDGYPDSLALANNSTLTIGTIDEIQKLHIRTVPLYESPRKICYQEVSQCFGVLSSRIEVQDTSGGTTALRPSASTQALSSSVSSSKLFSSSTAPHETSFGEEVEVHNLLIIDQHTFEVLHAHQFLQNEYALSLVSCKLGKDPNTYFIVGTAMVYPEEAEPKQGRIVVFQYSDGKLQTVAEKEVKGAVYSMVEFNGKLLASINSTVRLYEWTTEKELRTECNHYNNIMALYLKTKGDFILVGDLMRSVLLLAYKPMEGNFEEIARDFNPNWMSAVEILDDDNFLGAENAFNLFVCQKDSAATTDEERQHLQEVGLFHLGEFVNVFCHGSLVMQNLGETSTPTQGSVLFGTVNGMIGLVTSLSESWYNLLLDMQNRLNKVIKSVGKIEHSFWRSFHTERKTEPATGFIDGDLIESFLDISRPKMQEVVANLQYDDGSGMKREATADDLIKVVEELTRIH

For the compound `N[C@H]1CC[C@H](N(CCCN2CCOCC2)c2cccc3c2CN(C2CCC(=O)NC2=O)C3=O)CC1` (stereo partly drawn) [Compound 246, 3-(4-(((1r,4r)-4-aminocyclohexyl)(3-morpholinopropyl)amino)-1-oxoisoindolin-2-yl)piperidine-2,6-dione dihydrochloride], the IC50 in the assay with MV-4-11 cells was more than 1000 nM. Also, the Dmax at 0.316 µM at CK1α is less than 50%.

With `CCCCCN(CCC1(CN)CCCCC1)c1cccc2c1CN(C1CCC(=O)NC1=O)C2=O` (stereo not drawn) [Compound 255, 3-(4-((2-(1-(aminomethyl)cyclohexyl)ethyl) (pentyl)amino)-1-oxoisoindolin-2-yl) piperidine-2,6-dione, Formic Acid], the IC50 in the assay with MV-4-11 cells was in the range of 100 to 1000 nM. In addition, the Dmax at 0.316 µM on CK1α was in the range of 50 to 75%.

Consider `CC(C)(C)CCN(c1cccc2c1CN(C1CCC(=O)NC1=O)C2=O)[C@H]1CC[C@H](N)CC1` (stereo partly drawn) [Compound 267, 3-(4-(((1R,4R)-4-aminocyclohexyl)(3,3-dimethylbutyl)amino)-1-oxoisoindolin-2-yl)piperidine-2,6-dione hydrochloride], for which the IC50 in the assay with MV-4-11 cells is less than 100 nM. The Dmax at 0.316 µM at CK1α was more than 75%.

Regarding `CC(C)(C)CCCN(c1cccc2c1CN(C1CCC(=O)NC1=O)C2=O)[C@H]1CC[C@H](N)CC1` (stereo partly drawn) [Compound 268, 3-(4-(((1r,4r)-4-aminocyclohexyl)(4,4-dimethylpentyl)amino)-1-oxoisoindolin-2-yl)piperidine-2,6-dione, HCl], the IC50 in the assay on MV-4-11 cells was less than 100 nM. Also, on CK1α, the Dmax at 0.316 µM is more than 75%.

In the case of `CC(=O)N[C@H]1CC[C@H](N(CCCCN)c2cccc3c2CN(C2CCC(=O)NC2=O)C3=O)CC1` (stereo partly drawn) [Compound 273, N-((1r,4r)-4-((4-aminobutyl)(2-(2,6-dioxopiperidin-3-yl)-1-oxoisoindolin-4-yl)amino)cyclohexyl)acetamide, 2HCl], the IC50 with MV-4-11 cells was more than 1000 nM. Also, the Dmax at 0.316 µM on CK1α fell in the range of 50 to 75%.

For `CCCCCN(c1cccc2c1CN(C1CCC(=O)NC1=O)C2=O)[C@H]1CC[C@H](C(N)=O)CC1` (stereo partly drawn) [Compound 305, (1R,4R)-4-((2-(2,6-dioxopiperidin-3-yl)-1-oxoisoindolin-4-yl)(pentyl)amino)cyclohexane-1-carboxamide], the IC50 with MV-4-11 cells is less than 100 nM. On CK1α, the Dmax at 0.316 µM is more than 75%.

On to `CCCCCN(c1cccc2c1CN(C1CCC(=O)NC1=O)C2=O)[C@H]1CC[C@H](C(=O)NC)CC1` (stereo partly drawn) [Compound 306, (1R,4R)-4-((2-(2,6-dioxopiperidin-3-yl)-1-oxoisoindolin-4-yl)(pentyl)amino)-N-methylcyclohexane-1-carboxamide], for which the IC50 in the assay with MV-4-11 cells was in the range of 100 to 1000 nM. For the same compound, the Dmax at 0.316 µM on CK1α was more than 75%.

As for `CCCCCN(c1cccc2c1CN(C1CCC(=O)NC1=O)C2=O)[C@H]1CC[C@@H](C(N)=O)CC1` (stereo partly drawn) [Compound 307, (1S,4S)-4-((2-(2,6-dioxopiperidin-3-yl)-1-oxoisoindolin-4-yl)(pentyl)amino)cyclohexane-1-carboxamide], in the assay with MV-4-11 cells, the IC50 is less than 100 nM. At CK1α, the Dmax at 0.316 µM is more than 75%.

For `CCCCCN(c1cccc2c1CN(C1CCC(=O)NC1=O)C2=O)[C@H]1CC[C@@H](C(=O)NC)CC1` (stereo partly drawn) [Compound 308, (1S,4S)-4-((2-(2,6-dioxopiperidin-3-yl)-1-oxoisoindolin-4-yl)(pentyl)amino)-N-methylcyclohexane-1-carboxamide], the IC50 with MV-4-11 cells is less than 100 nM. For the same compound, the Dmax at 0.316 µM at CK1α is more than 75%.

Consider `CCCCCN(c1cccc2c1CN(C1CCC(=O)NC1=O)C2=O)[C@H]1CC[C@H](NCC)CC1` (stereo partly drawn) [Compound 309, 3-(4-(((1r,4r)-4-(ethylamino)cyclohexyl)(pentyl)amino)-1-oxoisoindolin-2-yl)piperidine-2,6-dione, HCl], for which the IC50 in the assay with MV-4-11 cells is less than 100 nM. Further, at CK1α, the Dmax at 0.316 µM was more than 75%.

With `CCCCCN(c1cccc2c1CN(C1CCC(=O)NC1=O)C2=O)[C@H]1CC[C@H](NC(C)C)CC1` (stereo partly drawn) [Compound 310, 3-(4-(((1r,4r)-4-(isopropylamino)cyclohexyl)(pentyl)amino)-1-oxoisoindolin-2-yl)piperidine-2,6-dione, HCl], in the assay on MV-4-11 cells, the IC50 is less than 100 nM. The Dmax at 0.316 µM at CK1α fell in the range of 50 to 75%.

Take `CCCCCN(c1cccc2c1CN(C1CCC(=O)NC1=O)C2=O)[C@H]1CC[C@H](NCC(C)C)CC1` (stereo partly drawn) [Compound 311, 3-(4-(((1r,4r)-4-(isobutylamino)cyclohexyl)(pentyl)amino)-1-oxoisoindolin-2-yl)piperidine-2,6-dione, HCl]: in the assay with MV-4-11 cells, the IC50 was less than 100 nM. Further, on CK1α, the Dmax at 0.316 µM is more than 75%.

In the case of `CCCCCN(c1cccc2c1CN(C1CCC(=O)NC1=O)C2=O)[C@H]1CC[C@H](NCCC)CC1` (stereo partly drawn) [Compound 312, 3-(1-oxo-4-(pentyl((1r,4r)-4-(propylamino)cyclohexyl)amino)isoindolin-2-yl)piperidine-2,6-dione, HCl], the IC50 in the assay on MV-4-11 cells was less than 100 nM. For the same compound, at CK1α, the Dmax at 0.316 µM was more than 75%.

As for `CCCCCN(c1cccc2c1CN(C1CCC(=O)NC1=O)C2=O)[C@H]1CC[C@H](NCC2CC2)CC1` (stereo partly drawn) [Compound 313, 3-(4-(((1R,4R)-4-((cyclopropylmethyl)amino)cyclohexyl)(pentyl)amino)-1-oxoisoindolin-2-yl)piperidine-2,6-dione hydrochloride], the IC50 in the assay with MV-4-11 cells was less than 100 nM. Besides, on CK1α, the Dmax at 0.316 µM is more than 75%.

For the compound `CCCCCN(c1cccc2c1CN(C1CCC(=O)NC1=O)C2=O)[C@@H]1CC[C@@H](CN)C1` (stereo partly drawn) [Compound 325, 3-(4-(((1R,3R)-3-(aminomethyl)cyclopentyl)(pentyl)amino)-1-oxoisoindolin-2-yl)piperidine-2,6-dione HCl salt], the IC50 with MV-4-11 cells was less than 100 nM. In addition, the Dmax at 0.316 µM at CK1α was more than 75%.

Regarding `NC[C@@H]1CC[C@@H](N(CCC2CC2)c2cccc3c2CN(C2CCC(=O)NC2=O)C3=O)C1` (stereo partly drawn) [Compound 325A, 3-(4-(((1R,3R)-3-(aminomethyl)cyclopentyl)(2-cyclopropylethyl)amino)-1-oxoisoindolin-2-yl)piperidine-2,6-dione, HCl], the IC50 in the assay on MV-4-11 cells was less than 100 nM. In addition, on CK1α, the Dmax at 0.316 µM is more than 75%.

With `CCCCCN(c1cccc2c1CN(C1CCC(=O)NC1=O)C2=O)[C@@H]1CC[C@H](CN)C1` (stereo partly drawn) [Compound 326, 3-(4-(((1R,3S)-3-(aminomethyl)cyclopentyl)(pentyl)amino)-1-oxoisoindolin-2-yl)piperidine-2,6-dione, Formic Acid salt], in the assay on MV-4-11 cells, the IC50 was less than 100 nM. Besides, on CK1α, the Dmax at 0.316 µM is more than 75%.

On to `NC[C@H]1CC[C@@H](N(CCC2CC2)c2cccc3c2CN(C2CCC(=O)NC2=O)C3=O)C1` (stereo partly drawn) [Compound 326A, 3-(4-(((1R,3S)-3-(aminomethyl)cyclopentyl)(2-cyclopropylethyl)amino)-1-oxoisoindolin-2-yl)piperidine-2,6-dione, HCl], for which the IC50 in the assay on MV-4-11 cells is less than 100 nM. Further, at CK1α, the Dmax at 0.316 µM was more than 75%.

Regarding `CCCCCN(c1cccc2c1CN(C1CCC(=O)NC1=O)C2=O)[C@H]1CCC[C@H](CN)C1` (stereo partly drawn) [Compound 329, 3-(4-(((1S,3S)-3-(aminomethyl)cyclohexyl)(pentyl)amino)-1-oxoisoindolin-2-yl)piperidine-2,6-dione, HCl], the IC50 in the assay on MV-4-11 cells was 100 to 1000 nM. Besides, the Dmax at 0.316 µM at CK1α was in the range of 50 to 75%.

Turning to `CCCCCN(c1cccc2c1CN(C1CCC(=O)NC1=O)C2=O)[C@H]1CCC[C@@H](CN)C1` (stereo partly drawn) [Compound 330, 3-(4-(((1S,3R)-3-(aminomethyl)cyclohexyl)(pentyl)amino)-1-oxoisoindolin-2-yl)piperidine-2,6-dione, HCl], the IC50 in the assay with MV-4-11 cells was less than 100 nM. On CK1α, the Dmax at 0.316 µM is more than 75%.

Turning to `O=C1CCC(N2Cc3c(cccc3N(CCCC(F)(F)F)[C@H]3CC[C@H](NC4CC(F)(F)C4)CC3)C2=O)C(=O)N1` (stereo partly drawn) [Compound 512, 3-(4-(((1r,4r)-4-((3,3-difluorocyclobutyl)amino)cyclohexyl)(4,4,4-trifluorobutyl)amino)-1-oxoisoindolin-2-yl)piperidine-2,6-dione], the IC50 in the assay on MV-4-11 cells was in the range of 100 to 1000 nM. For the same compound, the Dmax at 0.316 µM at CK1α fell in the range of 50 to 75%.

In the case of `O=C1CCC(N2Cc3c(cccc3N(CCCC(F)(F)F)[C@H]3CC[C@H](NCCC(F)(F)F)CC3)C2=O)C(=O)N1` (stereo partly drawn) [Compound 513, 3-(1-oxo-4-((4,4,4-trifluorobutyl)((1r,4r)-4-((3,3,3-trifluoropropyl)amino)cyclohexyl)amino)isoindolin-2-yl)piperidine-2,6-dione], the IC50 with MV-4-11 cells lay in the range of 100 to 1000 nM. For the same compound, the Dmax at 0.316 µM at CK1α is more than 75%.

As for `O=C1CCC(N2Cc3c(cccc3N(CCCC(F)(F)F)[C@H]3CC[C@H](NC4COC4)CC3)C2=O)C(=O)N1` (stereo partly drawn) [Compound 514, 3-(1-oxo-4-{[(1r,4r)-4-(oxetan-3-ylamino)cyclohexyl](4,4,4-trifluorobutyl)amino}-3H-isoindol-2-yl)piperidine-2,6-dione], the IC50 with MV-4-11 cells lay within 100 to 1000 nM. Also, at CK1α, the Dmax at 0.316 µM is 50 to 75%.

On to `O=C1CCC(N2Cc3c(cccc3N(CCC3CC3)[C@H]3CC[C@H](NC4CC(F)(F)C4)CC3)C2=O)C(=O)N1` (stereo partly drawn) [Compound 515, 3-(4-((2-cyclopropylethyl)((1r,4r)-4-((3,3-difluorocyclobutyl)amino)cyclohexyl)amino)-1-oxoisoindolin-2-yl)piperidine-2,6-dione formate], for which the IC50 in the assay with MV-4-11 cells is more than 1000 nM. For the same compound, the Dmax at 0.316 µM on CK1α was 50 to 75%.
